Experimental data as given in US20100137239A1, “GEMCITABINE COMBINATION THERAPY” (GLOUCESTER PHARMACEUTICALS, priority 2006, published 2010).
“Also recorded” adds a separate entry of the source.

What was measured:
c-Myc = test: Immunoblot of c-Myc in PANC-1 xenograft tumors after treatment; format: in vivo, human; conditions: FK228 5 mg/kg Q4Dx3; gemcitabine 80 mg/kg Q3Dx4; tumors at study completion; actin-normalized, vs controls
Description: (§1) Abstract: To examine activity and mechanism of FK228, antitumor efficacy was tested in PANC-1 pancreatic adenocarcinoma model representing transformed Ras, either as a single agent or in combination with gemcitabine. Following PANC-1 study completion, tumor and sera were obtained from: • the vehicle control; • FK228 dosed at 5 mg/kg once every four days for three treatments (Q4Dx3); • Gemcitabine at 80 mg/kg (Q3Dx4); and • the drug combination. Expression of c-Myc, acetylated histones 3 and 4, and p21^waf1 was compared between control and FK228 groups by immunoblotting and was quantified following actin normalization. Serum levels of putative tumor products b-FGF and MMP-2 were quantified by human-specific ELISA. […]
(§2) Tissue Biomarkers: Tumor levels of acetylated histone-4, histone-4, c-Myc, p21waf and β-actin were quantified by immunoblotting as described. […] The chemiluminescence signal was captured by autoradiography, quantified by densitometry and expressed as a ratio of actin in each sample lane. For each biomarker, means and standard errors were calculated in each treatment group. […]
(§3) Expression of c-Myc, acetylated histones 3 and 4, and p21^waf1 was compared between control and FK228 groups by immunoblotting and was quantified following actin normalization. Serum levels of putative tumor products b-FGF and MMP-2 were quantified by human-specific ELISA. […]

[1] = test system: NIH-3T3 cells transformed by H, K, N-Ras and the rat Her-2/NeuT; test: 4-day proliferation assay, transformed NIH-3T3 cell lines; format: cell-based, mouse; conditions: 2 nM romidepsin
Description: (§4) A series of transformed NIH-3T3 cell likes were generated and a proliferation assay was performed in the presence of 2, 3, or 4 nM romidepsin. FIG. 23 illustrates the transformed morphology of the cells. FIG. 24 presents graphs of cell proliferation.

B-Raf 600E cells = test: 4-day proliferation assay, B-Raf 600E NIH-3T3 cells; format: cell-based, mouse; conditions: 2, 3, or 4 nM romidepsin
Description: as §4

p21^waf = test: Immunoblot of p21^waf in PANC-1 xenograft tumors; format: in vivo, human; conditions: FK228 5 mg/kg Q4Dx3; gemcitabine 80 mg/kg Q3Dx4; tumors at study completion; vs controls
Description: as §1, §2, §3

SMILES | inhibition of c-Myc expression (c-Myc) [%] | proliferation of transformed vs untransformed cells [1] | potency on B-Raf 600E cells (B-Raf 600E cells) | p21^waf expression (p21^waf)
C/C=C1\NC(=O)[C@H]2CSSCC/C=C/[C@H](CC(=O)N[C@H](C(C)C)C(=O)N2)OC(=O)[C@H](C(C)C)NC1=O [FK228, romidepsin] | 50 | selectively inhibited | not potent | –
Nc1ccn([C@@H]2O[C@H](CO)[C@@H](O)C2(F)F)c(=O)n1 [Gemcitabine, gemcitabine] | 50 | – | – | downregulated; also recorded: down-regulated
